From the Kinase Knowledgebase extract (Sharma et al. 2016)

Molecular target: EGFR (UniProt P00533)
Experiment: Inhibition of EGFR Kinase Activity

EGFR, sequence (P00533 whole entry, looked up): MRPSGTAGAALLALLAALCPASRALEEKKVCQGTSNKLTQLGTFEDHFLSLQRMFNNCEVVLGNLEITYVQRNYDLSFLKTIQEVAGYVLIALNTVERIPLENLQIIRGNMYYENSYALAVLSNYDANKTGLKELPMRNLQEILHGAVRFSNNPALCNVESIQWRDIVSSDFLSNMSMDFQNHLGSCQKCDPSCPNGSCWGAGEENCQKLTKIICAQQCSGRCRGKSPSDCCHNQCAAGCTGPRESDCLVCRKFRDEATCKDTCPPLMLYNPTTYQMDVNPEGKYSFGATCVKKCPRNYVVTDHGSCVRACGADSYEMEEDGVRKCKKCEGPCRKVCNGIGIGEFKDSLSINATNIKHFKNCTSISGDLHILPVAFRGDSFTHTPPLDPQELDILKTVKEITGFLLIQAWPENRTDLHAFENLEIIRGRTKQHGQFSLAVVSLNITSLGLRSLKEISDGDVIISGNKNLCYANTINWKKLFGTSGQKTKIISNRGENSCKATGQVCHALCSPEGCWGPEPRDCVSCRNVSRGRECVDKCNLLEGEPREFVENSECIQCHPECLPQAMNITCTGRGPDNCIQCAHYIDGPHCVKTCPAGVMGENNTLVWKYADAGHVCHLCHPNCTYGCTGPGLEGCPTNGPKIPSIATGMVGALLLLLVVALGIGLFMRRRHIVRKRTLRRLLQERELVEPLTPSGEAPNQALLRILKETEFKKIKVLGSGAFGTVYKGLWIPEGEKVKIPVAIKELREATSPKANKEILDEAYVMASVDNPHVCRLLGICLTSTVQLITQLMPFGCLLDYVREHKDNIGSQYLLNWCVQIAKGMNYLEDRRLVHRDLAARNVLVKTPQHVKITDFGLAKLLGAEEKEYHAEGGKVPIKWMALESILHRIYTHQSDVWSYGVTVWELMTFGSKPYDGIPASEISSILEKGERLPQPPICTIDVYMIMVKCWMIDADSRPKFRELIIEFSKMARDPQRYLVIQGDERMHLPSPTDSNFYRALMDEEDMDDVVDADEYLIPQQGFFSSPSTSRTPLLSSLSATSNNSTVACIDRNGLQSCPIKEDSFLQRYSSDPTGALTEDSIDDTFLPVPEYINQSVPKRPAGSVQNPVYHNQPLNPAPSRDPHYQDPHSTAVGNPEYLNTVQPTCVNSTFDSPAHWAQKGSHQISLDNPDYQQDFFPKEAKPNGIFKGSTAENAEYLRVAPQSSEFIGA

C=CC(=O)Nc1cccc(Nc2ncnc(N(C)c3cccc(C)c3)n2)c1
IC50: < 50 µM

C=CC(=O)Nc1cccc(Nc2ncnc(N(C)c3ccc(OCCC)c(OCCC)c3)n2)c1
IC50: < 50 µM

CC#CC(=O)Nc1cccc(Nc2ncnc(N(CC)c3cccc(CC(=O)OC)c3)n2)c1
IC50: < 50 µM

C=CC(=O)Nc1cc(Nc2ncnc(Nc3ccc4c(ccn4Cc4ccccc4)c3)n2)ccc1OCCCN1CCOCC1
IC50: < 50 µM

C=CCN(c1cc(OC)c(OC)c(OCCN2CCOCC2)c1)c1ncnc(Nc2ccc(NC(=O)C=C)cc2)n1
IC50: < 50 µM

CC#CC(=O)Nc1cccc(Nc2ncnc(Nc3ccc(OCC)c(OCC)c3)n2)c1
IC50: < 50 µM

CC#CC(=O)Nc1cccc(Nc2ncnc(N(C)c3cccc4ccccc34)n2)c1
IC50: < 50 µM

C=CC(=O)Nc1cccc(Nc2ncnc(Nc3cccc(Br)c3)n2)c1
IC50: < 50 µM

C=CC(=O)Nc1cccc(Nc2ncnc(Nc3ccc(OCCOC)c(OC)c3)n2)c1
IC50: < 50 µM

C=CCN(c1ccc(OCC)c(OCC)c1)c1ncnc(Nc2ccc(NC(=O)C=C)cc2)n1
IC50: < 50 µM

C=CC(=O)Nc1ccc(Nc2ncnc(Nc3ccc(OCCC)c(OCCC)c3)n2)cc1
IC50: < 50 µM

C=CCN(c1ccc(C(=O)OC)cc1)c1ncnc(Nc2ccc(NC(=O)C=C)cc2)n1
IC50: < 50 µM

C=CC(=O)Nc1ccc(Nc2ncnc(N(C)C3CC3c3ccc(Cl)cc3)n2)cc1 (centres undefined)
IC50: < 50 µM

C=CC(=O)Nc1cccc(Nc2ncnc(Nc3ccc4nc(Cc5ccccc5)[nH]c4c3)n2)c1
IC50: < 50 µM

C=CC(=O)Nc1cccc(Nc2ncnc(N(C)c3ccc(OCC)c(OCC)c3)n2)c1
IC50: < 50 µM

C=CC(=O)Nc1ccc(Nc2ncnc(N(C)c3cc(OC)c(OC)c(OCCN4CCOCC4)c3)n2)cc1
IC50: < 50 µM

C=CC(=O)Nc1cccc(Nc2ncnc(N(CC)c3ccc(C(=O)OC)cc3)n2)c1
IC50: < 50 µM

CCN(c1ccc2NN(=Cc2c1)Cc3ccccn3)c4ncnc(Nc5ccc(NC(=O)C=C)cc5)n4
IC50: < 50 µM

C=CCN(c1cccc(C(N)=O)c1)c1ncnc(Nc2ccc(NC(=O)C=C)cc2)n1
IC50: < 50 µM

C=CCN(c1ncnc(Nc2cccc(NC(=O)C=C)c2)n1)n1c(=O)[nH]c2ccccc21
IC50: < 50 µM

C=CC(=O)n1ncc2ccc(Nc3ncnc(Nc4ccc5c(cnn5Cc5ccccc5)c4)n3)cc21
IC50: < 50 µM

C=CC(=O)N(CCCN1CCOCC1)c1cccc(Nc2ncnc(Nc3cccc(Cl)c3)n2)c1
IC50: < 50 µM

C=CC(=O)Nc1cccc(Nc2ncnc(N(CC)c3ccc(OC)c(OCCOC)c3)n2)c1
IC50: < 50 µM

C=CC(=O)N(CCCN1CCOCC1)c1cccc(Nc2ncnc(N(C)c3ccc4c(cnn4Cc4ccccc4)c3)n2)c1
IC50: < 50 µM

C=CCN(c1ncnc(Nc2cccc(NC(=O)C=C)c2)n1)c1cccc2ccccc12
IC50: < 50 µM

CC#CC(=O)Nc1cccc(Nc2ncnc(Nc3ccc4c(cnn4Cc4ccccc4)c3)n2)c1
IC50: < 50 µM

C=CC(=O)N(CCCN1CCOCC1)c1cccc(Nc2ncnc(Nc3ccc(OCc4ccccc4)cc3)n2)c1
IC50: < 50 µM

C=CC(=O)Nc1cccc(Nc2ncnc(Nc3ccc(C(=O)OC)cc3)n2)c1
IC50: < 50 µM

C=CC(=O)Nc1ccc(Nc2ncnc(N(CC)c3cccc(S(=O)(=O)c4ccc([N+](=O)[O-])cc4)c3)n2)cc1
IC50: < 50 µM

C=CC(=O)Nc1ccc(Nc2ncnc(NN3CCCc4ccc(C(F)(F)F)cc43)n2)cc1
IC50: < 50 µM

CC#CC(=O)Nc1cccc(Nc2ncnc(Nc3cc(Cl)ccc3C)n2)c1
IC50: < 50 µM

CC#CC(=O)Nc1cccc(Nc2ncnc(Nc3ccc4c(ccn4Cc4ccccc4)c3)n2)c1
IC50: < 50 µM

C=CCN(c1ccc2c(cnn2Cc2ccccc2)c1)c1ncnc(Nc2cccc(NC(=O)C=C)c2)n1
IC50: < 50 µM

CC#CC(=O)Nc1cccc(Nc2ncnc(N(CC)c3ccc(OC)c(OC)c3)n2)c1
IC50: < 50 µM

CC#CC(=O)Nc1cccc(Nc2ncnc(N(C)C3CC3c3ccccc3)n2)c1 (centres undefined)
IC50: < 50 µM

C=CC(=O)Nc1cccc(Nc2ncnc(N(C)c3cc(OC)c(OC)c(OCCN4CCOCC4)c3)n2)c1
IC50: < 50 µM

C=CC(=O)Nc1cccc(Nc2ncnc(Nc3cccc(Cl)c3)n2)c1
IC50: < 50 µM

CC#CC(=O)Nc1cccc(Nc2ncnc(N(CC)c3ccc(C(=O)OC)cc3)n2)c1
IC50: < 50 µM

C=CC(=O)Nc1ccc(Nc2ncnc(N(C)c3ccc(OCc4ccccc4)cc3)n2)cc1
IC50: < 50 µM

C=CC(=O)Nc1ccc(Nc2ncnc(Nn3c(=O)[nH]c4ccccc43)n2)cc1
IC50: < 50 µM

CC#CC(=O)Nc1cccc(Nc2ncnc(N(CC)c3cccc(C(N)=O)c3)n2)c1
IC50: < 50 µM

CC#CC(=O)Nc1cc(Nc2ncnc(Nc3ccc4c(ccn4Cc4ccccc4)c3)n2)ccc1OCCCC1CCN(C)CC1
IC50: < 50 µM

C=CCN(c1ncnc(Nc2cccc(NC(=O)C=C)c2)n1)n1c(=O)n(C(=O)C(C)(C)C)c2ccccc21
IC50: < 50 µM

C=CCN(c1ccc(OCCO)cc1)c1ncnc(Nc2cccc(NC(=O)C=C)c2)n1
IC50: < 50 µM

CC#CC(=O)Nc1cc(Nc2ncnc(N(C)c3ccc4c(cnn4Cc4ccccc4)c3)n2)ccc1OCCCN1CCOCC1
IC50: < 50 µM

C=CC(=O)Nc1ccc(Nc2ncnc(Nc3ccc(F)c(Cl)c3)n2)cc1
IC50: < 50 µM

C=CC(=O)Nc1ccc(Nc2ncnc(N(CC)c3cccc4ccccc34)n2)cc1
IC50: < 50 µM

C=CC(=O)N(OCCCC1CCN(C)CC1)c1cccc(Nc2ncnc(NN3CCCc4ccc(Cl)cc43)n2)c1
IC50: < 50 µM

C=CC(=O)Nc1cccc(Nc2ncnc(Nc3ccc(OCc4ccccc4)cc3)n2)c1
IC50: < 50 µM

C=CCN(c1ncnc(Nc2ccc(NC(=O)C=C)cc2)n1)n1c(=O)n(C(=O)C(C)(C)C)c2ccccc21
IC50: < 50 µM

C=CC(=O)Nc1cccc(Nc2ncnc(N(C)n3c(=O)[nH]c4ccccc43)n2)c1
IC50: < 50 µM

C=CCN(c1cccc(CC(=O)OC)c1)c1ncnc(Nc2ccc(NC(=O)C=C)cc2)n1
IC50: < 50 µM

C=CCN(c1ncnc(Nc2cccc(NC(=O)C#CC)c2)n1)c1cccc2ccccc12
IC50: < 50 µM

C=CC(=O)Nc1cccc(Nc2ncnc(Nc3ccc(OCc4ccc(F)c(F)c4)c(F)c3)n2)c1
IC50: < 50 µM

C=CC(=O)Nc1ccc(Nc2ncnc(NN3CCCc4cc(OC)ccc43)n2)cc1
IC50: < 50 µM

C=CC(=O)N(CCCN1CCOCC1)c1cccc(Nc2ncnc(NC3CC3c3ccc(Cl)cc3)n2)c1 (centres undefined)
IC50: < 50 µM

C=CCN(c1ccc(OCCOC)c(OC)c1)c1ncnc(Nc2ccc(NC(=O)C=C)cc2)n1
IC50: < 50 µM

CC#CC(=O)Nc1cccc(Nc2ncnc(N(C)c3ccc(OC)c(OCCOC)c3)n2)c1
IC50: < 50 µM

CC#CC(=O)Nc1cc(Nc2ncnc(N(C)c3ccc4c(ccn4Cc4ccccc4)c3)n2)ccc1OCCCN1CCOCC1
IC50: < 50 µM

C=CC(=O)Nc1ccc(Nc2ncnc(N(CC)n3c(=O)[nH]c4ccccc43)n2)cc1
IC50: < 50 µM

C=CC(=O)Nc1ccc(Nc2ncnc(Nc3ccc(OCCOC)c(OC)c3)n2)cc1
IC50: < 50 µM

C=CC(=O)Nc1ccc(Nc2ncnc(N(C)c3ccc(F)c(Cl)c3)n2)cc1
IC50: < 50 µM

CC#CC(=O)Nc1cccc(Nc2ncnc(Nc3ccc(C(=O)OC)cc3)n2)c1
IC50: < 50 µM

C=CC(=O)Nc1cccc(Nc2ncnc(Nc3ccc(OCC)c(OCC)c3)n2)c1
IC50: < 50 µM

C=CC(=O)Nc1cccc(Nc2ncnc(Nc3ccc4c(cnn4Cc4cccc(F)c4)c3)n2)c1
IC50: < 50 µM

C=CC(=O)Nc1ccc(Nc2ncnc(NN3CCCc4cc(C)ccc43)n2)cc1
IC50: < 50 µM

C=CC(=O)Nc1ccc(Nc2ncnc(N(C)c3cccc(C(N)=O)c3)n2)cc1
IC50: < 50 µM

C=CC(=O)Nc1ccc(Nc2ncnc(Nc3cc(Cl)ccc3C)n2)cc1
IC50: < 50 µM

CC#CC(=O)Nc1cccc(Nc2ncnc(n2)N(CC=C)c3ccc4NN(=Cc4c3)Cc5ccccn5)c1
IC50: < 50 µM

C=CC(=O)Nc1ccc(Nc2ncnc(N(C)c3ccc(OCc4ccccc4)c(Cl)c3)n2)cc1
IC50: < 50 µM

CC#CC(=O)Nc1cc(Nc2ncnc(Nc3ccc4c(cnn4Cc4ccccc4)c3)n2)ccc1OCCCN1CCOCC1
IC50: < 50 µM

C=CC(=O)Nc1cccc(Nc2ncnc(NC3CC3c3ccccc3)n2)c1 (centres undefined)
IC50: < 50 µM

C=CC(=O)Nc1cccc(Nc2ncnc(Nc3cccc(C)c3)n2)c1
IC50: < 50 µM

C=CCN(c1ncnc(Nc2ccc(NC(=O)C=C)cc2)n1)c1cc(Cl)cc2ccccc12
IC50: < 50 µM
